Reference: patent publication US10329292B2, “Substituted xanthine derivatives” (Boehringer Ingelheim International GmbH, priority 2017, dated 2019)
Entries after “also recorded” stand apart in the source; their conditions may differ.

What was measured:
TRPC5 channel = molecular target: T1, TRPC5 channel (Homo sapiens, UniProt Q9UL62); assay: Assay A: Determination of TRPC5-inhibition (whole-cell patch clamp); assay type: cell-based; conditions: LaCl3-activated current
T1 construct: expressed in transfected cells; host or cells: HEK293 TREx (inducible expression)
T1 sequence (Q9UL62 1-973): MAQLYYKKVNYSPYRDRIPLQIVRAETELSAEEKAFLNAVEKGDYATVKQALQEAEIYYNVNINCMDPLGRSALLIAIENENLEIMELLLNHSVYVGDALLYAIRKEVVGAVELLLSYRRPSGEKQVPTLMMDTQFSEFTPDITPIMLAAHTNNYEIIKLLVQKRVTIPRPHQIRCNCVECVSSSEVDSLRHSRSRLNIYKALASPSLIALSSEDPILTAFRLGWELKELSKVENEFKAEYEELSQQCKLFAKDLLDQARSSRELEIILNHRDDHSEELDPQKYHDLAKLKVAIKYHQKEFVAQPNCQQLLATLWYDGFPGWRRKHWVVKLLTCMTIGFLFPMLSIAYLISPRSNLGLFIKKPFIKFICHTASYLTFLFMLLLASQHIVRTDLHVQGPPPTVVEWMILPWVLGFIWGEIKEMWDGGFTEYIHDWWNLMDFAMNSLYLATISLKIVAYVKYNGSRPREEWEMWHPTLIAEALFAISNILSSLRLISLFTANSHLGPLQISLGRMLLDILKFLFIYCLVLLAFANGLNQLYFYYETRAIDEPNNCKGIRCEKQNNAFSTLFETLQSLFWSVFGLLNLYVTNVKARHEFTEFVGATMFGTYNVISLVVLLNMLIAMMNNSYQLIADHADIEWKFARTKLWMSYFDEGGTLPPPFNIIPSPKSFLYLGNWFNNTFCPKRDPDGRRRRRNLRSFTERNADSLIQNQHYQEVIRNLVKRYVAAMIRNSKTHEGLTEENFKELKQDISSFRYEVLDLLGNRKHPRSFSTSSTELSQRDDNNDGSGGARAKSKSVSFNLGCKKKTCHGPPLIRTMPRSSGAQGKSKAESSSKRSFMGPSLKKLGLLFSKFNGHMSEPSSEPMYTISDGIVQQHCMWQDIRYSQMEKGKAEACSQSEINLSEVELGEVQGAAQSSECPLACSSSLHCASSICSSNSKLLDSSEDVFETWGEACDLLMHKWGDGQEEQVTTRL
Excerpt: Assay A: Determination of TRPC5-Inhibition
Patch clamp experiments permit the detection of currents through the TRPC5 channel in a cell line. In normal whole-cell patch clamp recordings, a glass electrode is brought into contact with a single cell and a high-resistance (gigaohm) seal is established with the cell membrane. The membrane is then ruptured to achieve the whole-cell configuration, permitting control of the voltage of the cell membrane and measurement of currents flowing across the membrane using the amplifier attached to the electrode and resulting in the replacement of cytoplasm with the pipette solution. A perfusion system permits control of the extracellular solution, including the addition of blockers and activators of the current. The current can be activated by including 1.4 μM free Ca2+ in the pipette (intracellular) solution, and 80 μM LaCl3 in the extracellular solution.
TRPC5 cells were induced 20-48 hours, removed from growth plates, and replated at low density (to attain good single-cell physical separation) on glass coverslips for measurement. In some cases, cells were grown in low density overnight on glass coverslips. Patch clamp recordings were made in the whole-cell mode with a holding potential of −40 mV. Every 5 seconds, a voltage ramp was applied from −120 to +100 mV, 400 ms in duration. Currents elicited were quantified at −80 mV and +80 mV. The internal solution consisted of 140 mM cesium aspartate, 10 mM HEDTA, 2 mM CaCl2, 2.27 mM MgCl2 and 10 mM HEPES, pH 7.2, with 1,400 nM calculated free Ca2+. The external solution consisted of 150 mM NaCl, 4.5 mM 15 KCl, 1 mM MgCl2, 2 mM CaCl2, 10 mM HEPES, 10 mM glucose, 1 mM EGTA, pH 7.4. Upon addition of LaCl3, TRPC5 current was induced only in TRPC5-expressing cells and not in parental HEK293 TREx cells. Removal of the LaCh stimulus causes most of the current to go away. Potential blockers were tested for ability to block both inward and outward currents in the continued presence of LaCl3.
IC50 of a compound of the invention was estimated by testing the compound 500 nM. […] Compounds blocking 50% or more at 500 nM are retested at multiple concentrations, and the % block is fitted by standard equations to determine IC50 accurately, using a ⅚ point concentration-response experiment.

hERG channel = molecular target: T2, hERG channel (Homo sapiens, UniProt Q12809); assay: Assay B: Determination of hERG-inhibition (patch-clamp); assay type: cell-based; conditions: patch-clamp per Rast and Guth 2014
T2 construct: expressed in transfected cells
Procedure: Assay B: Determination of hERG-Inhibition
hERG-channel inhibition was determined as described in Rast G, Guth B D, Solubility assessment and on-line exposure confirmation in a patch-clamp assay for hERG (human ether-a-go-go-related gene) potassium channel inhibition, J Pharmacol Toxicol Methods. 2014 September-October; 70(2):182-7.

[1] = compounds of the present invention, TRPC5-expressing HEK293 TREx cells
[2] = compounds of the present invention
[3] = compounds of WO2014/143799, TRPC5-expressing HEK293 TREx cells

T2 sequence (Q12809 whole entry): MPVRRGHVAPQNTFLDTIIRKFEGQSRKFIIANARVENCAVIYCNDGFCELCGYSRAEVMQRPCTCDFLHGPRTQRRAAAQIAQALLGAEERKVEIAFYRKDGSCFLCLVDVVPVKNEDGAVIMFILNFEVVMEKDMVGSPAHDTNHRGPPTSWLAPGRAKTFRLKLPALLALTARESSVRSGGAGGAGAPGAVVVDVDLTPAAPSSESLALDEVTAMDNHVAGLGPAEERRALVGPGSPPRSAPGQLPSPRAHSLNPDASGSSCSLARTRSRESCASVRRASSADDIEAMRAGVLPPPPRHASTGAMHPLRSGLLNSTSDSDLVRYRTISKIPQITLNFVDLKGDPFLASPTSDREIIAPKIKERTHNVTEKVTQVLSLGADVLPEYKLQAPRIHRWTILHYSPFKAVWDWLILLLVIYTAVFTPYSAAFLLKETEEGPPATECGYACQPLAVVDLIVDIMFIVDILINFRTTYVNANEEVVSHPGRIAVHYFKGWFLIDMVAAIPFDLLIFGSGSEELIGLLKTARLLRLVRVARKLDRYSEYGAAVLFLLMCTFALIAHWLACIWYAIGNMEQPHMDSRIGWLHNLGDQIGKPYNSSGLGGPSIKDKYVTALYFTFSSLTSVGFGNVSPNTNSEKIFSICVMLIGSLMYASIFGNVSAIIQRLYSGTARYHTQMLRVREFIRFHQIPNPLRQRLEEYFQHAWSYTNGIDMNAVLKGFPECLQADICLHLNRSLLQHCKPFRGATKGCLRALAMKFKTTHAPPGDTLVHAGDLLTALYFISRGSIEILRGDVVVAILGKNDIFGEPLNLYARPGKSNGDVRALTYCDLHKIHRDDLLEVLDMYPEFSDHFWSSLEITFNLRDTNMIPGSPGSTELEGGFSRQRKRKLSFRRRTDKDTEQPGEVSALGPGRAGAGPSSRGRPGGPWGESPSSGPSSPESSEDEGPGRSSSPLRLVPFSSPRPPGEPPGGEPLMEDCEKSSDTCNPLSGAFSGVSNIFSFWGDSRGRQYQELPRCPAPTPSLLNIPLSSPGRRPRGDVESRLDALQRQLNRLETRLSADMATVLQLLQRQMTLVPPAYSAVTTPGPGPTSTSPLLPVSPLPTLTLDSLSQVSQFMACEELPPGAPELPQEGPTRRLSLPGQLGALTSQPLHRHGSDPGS

Row | IC50 (TRPC5 channel; [1]) [µM] | SMILES | IC50 (hERG channel; [2]) [µM] | further results
1 | < 0.01 | CC(C)n1c(=O)n(CCCO)c(=O)c2c1nc(-c1cccnc1OCC1CC1)n2Cc1ccc(F)cc1 [Example 6] | > 10 | –
2 | < 0.01 | Cc1nc(OCC2CC2)c(-c2nc3c(c(=O)n(CCCO)c(=O)n3C(C)C)n2Cc2ccccc2)cc1F [Example 15] | 5.8 | –
3 | – | COc1ccccc1-c1nc2c(c(=O)n(CCCO)c(=O)n2C)n1Cc1ccc(F)cc1 [Compound ID 415 in WO2014/143799, reference compound] | – | Assay A TRPC5 inhibition (TRPC5 channel; [3]): agonism (activation); also recorded: Agonist; IC50 (hERG channel; compounds of WO2014/143799): > 10 µM
4 | < 0.01 | Cc1ccc(-c2nc3c(c(=O)n(CCCO)c(=O)n3C(C)C)n2Cc2ccccc2)c(OCC2CC2)n1 [Example 13] | > 10 | –
5 | < 0.01 | CC(C)n1c(=O)n(CCCO)c(=O)c2c1nc(-c1cccnc1OC[C@@H]1CC1(F)F)n2Cc1ccccc1 [Example 19] | > 10 | –
6 | < 0.01 | CC(C)n1c(=O)n(CCCO)c(=O)c2c1nc(-c1cccnc1OCC1CC1)n2Cc1ccc(F)c(F)c1 [Example 3] | > 10 | –
7 | < 0.01 | CC(C)n1c(=O)n(CCCO)c(=O)c2c1nc(-c1cccnc1OCC1CC1)n2Cc1ccc(Cl)cc1 [Example 5] | > 10 | –
8 | < 0.01 | CCn1c(=O)n(CCCO)c(=O)c2c1nc(-c1nccnc1OCC1CC1)n2Cc1ccccc1 [Example 11] | > 10 | –
9 | < 0.01 | CC(C)n1c(=O)n(CCCO)c(=O)c2c1nc(-c1cccnc1OCC1CC1)n2Cc1cc(F)cc(F)c1 [Example 1] | > 10 | –
10 | < 0.01 | CC(C)n1c(=O)n(CC[C@@H](C)O)c(=O)c2c1nc(-c1cccnc1OCC1CC1)n2Cc1ccc(Cl)cc1 [Example 25] | 7.6 | –
11 | < 0.01 | CC(C)n1c(=O)n(CCCO)c(=O)c2c1nc(-c1ccc(F)nc1OCC1CC1)n2Cc1ccc(F)cc1 [Example 7] | > 10 | –
12 | < 0.01 | CC(C)n1c(=O)n(CCCO)c(=O)c2c1nc(-c1ccc(F)nc1OCC1CC1)n2Cc1ccccc1 [Example 10] | > 10 | –
13 | < 0.01 | CC(C)n1c(=O)n(CCCO)c(=O)c2c1nc(-c1cccnc1OC[C@H]1CC1(F)F)n2Cc1ccc(F)cc1 (single isomer, unassigned) [Example 21] | > 10 | –
14 | < 0.01 | CC(C)n1c(=O)n(CC[C@@H](C)O)c(=O)c2c1nc(-c1cccnc1OCC1CC1)n2Cc1ccc(F)cc1 [Example 24] | > 10 | –
15 | < 0.01 | CC(C)n1c(=O)n(CCCO)c(=O)c2c1nc(-c1cccnc1OCC1CC1)n2Cc1ccccc1 [Example 18] | > 10 | –
16 | < 0.01 | CC(C)n1c(=O)n(CCCO)c(=O)c2c1nc(-c1cccnc1OC[C@@H]1CC1(F)F)n2Cc1ccc(F)cc1 (single isomer, unassigned) [Example 22] | > 10 | –
17 | < 0.01 | CC(C)n1c(=O)n(CC[C@@H](C)O)c(=O)c2c1nc(-c1cccnc1OCC1CC1)n2Cc1ccccc1 [Example 23] | > 10 | –
18 | < 0.01 | CC(C)n1c(=O)n(CCCO)c(=O)c2c1nc(-c1nccnc1OCC1CC1)n2Cc1ccccc1 [Example 9] | > 10 | –
19 | < 0.01 | CC(C)n1c(=O)n(CCCO)c(=O)c2c1nc(-c1cc(F)cnc1OCC1CC1)n2Cc1ccc(F)cc1 [Example 17] | > 10 | –
20 | < 0.01 | Cc1nc(OCC2CC2)c(-c2nc3c(c(=O)n(CCCO)c(=O)n3C(C)C)n2Cc2ccc(F)cc2)cc1F [Example 14] | 5.8 | –
21 | < 0.01 | CC(C)n1c(=O)n(CCCO)c(=O)c2c1nc(-c1cc(F)cnc1OCC1CC1)n2Cc1ccccc1 [Example 16] | > 10 | –
22 | < 0.01 | CC(C)n1c(=O)n(CCCO)c(=O)c2c1nc(-c1cccnc1OCC1CC1)n2Cc1ccc(C(F)(F)F)cc1 [Example 2] | 8.3 | –
23 | < 0.01 | CC(C)n1c(=O)n(CCCO)c(=O)c2c1nc(-c1cccnc1OCC1CC1)n2Cc1ccc(Cl)cn1 [Example 8] | > 10 | –
24 | < 0.01 | Cc1ccc(Cn2c(-c3cccnc3OCC3CC3)nc3c2c(=O)n(CCCO)c(=O)n3C(C)C)cc1 [Example 4] | > 10 | –
25 | – | Cn1c(=O)n(CCCO)c(=O)c2c1nc(Oc1cccc(Cl)c1)n2Cc1cccc(Cl)c1 [Compound ID 260 in WO2014/143799, reference compound] | – | Assay A TRPC5 inhibition (TRPC5 channel; [3]): potent TRPC5-inhibition; IC50 (TRPC5 channel; [3]): < 0.01 µM; Assay B hERG inhibition (hERG channel; compounds of WO2014/143799): low μM range; IC50 (hERG channel; compounds of WO2014/143799): 1.9 µM
26 | < 0.01 | CC(C)n1c(=O)n(CCCO)c(=O)c2c1nc(-c1cccnc1OC[C@H]1CC1(F)F)n2Cc1ccccc1 [Example 20] | > 10 | –
27 | < 0.01 | Cn1c(=O)n(CCCO)c(=O)c2c1nc(-c1nccnc1OCC1CC1)n2Cc1ccc(Cl)cc1 [Example 12] | > 10 | –
